Reference: US20240307415A1, “STEROID COMPOUND, AND PHARMACEUTICAL COMPOSITION THEREOF AND USE THEREOF” (JIANGSU SIMCERE PHARMACEUTICAL CO., LTD., priority 2021, published 2024)

Target: hERG potassium channel (Homo sapiens (Human), UniProt Q12809)
Experiment: hERG inhibitory activity, manual patch clamp
Format: cell-based
Settings: HEK293 cells stably expressing hERG
Description: The inhibition of hERG activity by the compound of the present invention was determined using the following method.
HEK293 cells (Cat. No: K1236) stably expressing hERG ion channel were purchased from Invitrogen. The cells were cultured in a culture medium containing 85% DMEM, 10% dialyzed fetal bovine serum, 0.1 mM non-essential amino acid solution, 100 U/mL penicillin-streptomycin solution, 25 mM HEPES, 5 μg/mL blasticidin, and 400 μg/mL geneticin. When the cell density increased to 40-80% of the bottom area of the culture dish, the cells were digested with trypsin and subcultured thrice every week. Before the experiment, the cells were cultured at a density of 5×10^5 in 6-cm culture dishes, induced for 48 h with 1 μg/mL doxycycline, and then digested and inoculated on a slide for the subsequent manual patch-clamp experiment. […]
• 1) The slides carrying HEK293 cells in the culture dish were placed in the perfusion chamber of the micromanipulation stage. • 2) Appropriate cells were placed in the center of the field of view under an Olympus IX51, IX71, or IX73 inverted microscope. […] The peak value of the tail current was the magnitude of the hERG current. • 9) The hERG current used to detect the test compound was recorded continuously for 120 seconds prior to dosing to assess the stability of hERG current production by the test cells. […]

Chain of hERG potassium channel (Q12809 whole entry): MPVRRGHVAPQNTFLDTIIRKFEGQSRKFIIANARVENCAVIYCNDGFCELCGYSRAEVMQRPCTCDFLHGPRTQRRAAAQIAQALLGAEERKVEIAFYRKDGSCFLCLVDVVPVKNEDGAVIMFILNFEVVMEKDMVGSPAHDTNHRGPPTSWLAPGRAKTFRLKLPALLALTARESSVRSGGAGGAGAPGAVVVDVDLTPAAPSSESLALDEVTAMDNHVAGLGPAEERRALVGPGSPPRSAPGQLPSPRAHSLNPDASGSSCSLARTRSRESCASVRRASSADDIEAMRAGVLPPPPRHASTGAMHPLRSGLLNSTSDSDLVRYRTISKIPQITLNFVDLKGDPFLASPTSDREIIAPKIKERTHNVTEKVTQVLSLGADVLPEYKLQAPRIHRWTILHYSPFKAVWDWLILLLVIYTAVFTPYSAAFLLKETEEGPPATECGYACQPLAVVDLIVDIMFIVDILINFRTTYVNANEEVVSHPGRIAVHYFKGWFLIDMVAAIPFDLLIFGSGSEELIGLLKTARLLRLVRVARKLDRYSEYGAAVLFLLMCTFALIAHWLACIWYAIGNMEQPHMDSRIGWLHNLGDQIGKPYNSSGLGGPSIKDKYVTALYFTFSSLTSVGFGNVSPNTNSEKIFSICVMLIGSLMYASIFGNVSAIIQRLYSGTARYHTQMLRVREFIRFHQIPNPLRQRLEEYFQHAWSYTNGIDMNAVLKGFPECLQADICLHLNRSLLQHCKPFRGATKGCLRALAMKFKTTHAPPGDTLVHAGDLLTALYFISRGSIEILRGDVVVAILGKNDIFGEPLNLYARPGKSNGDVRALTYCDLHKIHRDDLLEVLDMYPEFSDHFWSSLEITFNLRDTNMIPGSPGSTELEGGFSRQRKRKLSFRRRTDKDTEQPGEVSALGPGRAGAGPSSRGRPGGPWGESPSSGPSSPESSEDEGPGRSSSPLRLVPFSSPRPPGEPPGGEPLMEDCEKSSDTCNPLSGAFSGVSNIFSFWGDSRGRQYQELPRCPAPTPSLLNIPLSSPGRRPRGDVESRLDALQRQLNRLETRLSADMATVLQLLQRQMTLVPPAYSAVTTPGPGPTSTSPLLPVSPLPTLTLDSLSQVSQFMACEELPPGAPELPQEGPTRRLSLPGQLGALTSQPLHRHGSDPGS

`C[C@]12C=CC(=O)C=C1CC[C@@H]1[C@@H]2[C@@H](O)C[C@@]2(C)[C@H]1C[C@H]1O[C@@H](c3ccc(Cc4cc(N)c5c(c4)CCO5)cc3)O[C@]12C(=O)CO` [Compound 009, (6aR,6bS,7S,8aS,8bS,10R,11aR,12aS,12bS)-10-(4-((7-amino-2,3-dihydrobenzofuran-5-yl)methyl)phenyl)-7-hydroxy-8b-(2-hydroxyacetyl)-6a,8a-dimethyl-6a,6b,7,8,8a,8b,11a,12,12a,12b-decahydro-1H-naphtho[2′,1′:4,5]indeno[1,2-d][1,3]dioxolan-4(2H)-one] showed an IC50 greater than 30 µM.
